pEC50: −log10 of the molar value.
Test: HIV MT-4 Serum Shift Antiviral Reporter Assay: To quantify the amount of protein binding to human serum, compounds were serially diluted (1:3) in DMSO and acoustically transferred onto 384-well assay plates via a Labcyte ECHO robot. Each plate contained up to 8 test compounds, including negative and positive controls, (DMSO, 5 μM AZT respectively). Assay plates were prepared in duplicate, and tested in either CCM (cell culture media) or HS/CCM (human serum/cell culture media). MT-4 cells were first pre-infected with pLai RLuc reporter virus for 2 h at 37° C., then further diluted in either CCM (RPMI media, 10% FBS, 1% P/S) or HS/CCM (RPMI media, 10% FBS, 50% HS, 1% P/S), and subsequently added to each plate using a Biotek Micro Flow dispenser. After a 72-h incubation in a humidified and temperature controlled incubator (37° C.), Renilla Glo (Promega) was added to all assay plates and chemiluminescence read using an Envision plate-reader. EC50 values were defined as the compound concentration that causes a 50% decrease in luminescence signal, and were calculated using a sigmoidal dose-response model to generate curve fits. To determine the amount of protein binding, EC50 fold shifts (or EC50 shifts) were calculated by dividing EC50 (HS/CCM)/EC50 (CCM).

SMILES | pEC50 | pEC50 (MT4, 2 h)
C[C@@H]1C=C[C@H](CF)N2CN1n1cc(C(=O)NCc3ccc(F)cc3F)c(=O)c(O)c1C2=O | 8.72 | 
CC1=C[C@H](C)N2CN([C@@H]1C)n1cc(C(=O)NCc3ccc(F)cc3F)c(=O)c(O)c1C2=O |  | 8.85
C[C@H]1C=C[C@H](C)N2CN1C(=O)c1c(O)c(=O)c(C(=O)NCc3c(F)cc(F)cc3F)cn12 | 8.85 | 
C[C@H]1C=CC2(CCC2)N2CN1C(=O)c1c(O)c(=O)c(C(=O)NCc3c(F)cc(F)cc3F)cn12 | 8.52 | 
C[C@@H]1CC[C@H](C)N2CN1n1cc(C(=O)NCc3ccc(F)cc3F)c(=O)c(O)c1C2=O | 8.82 | 
CO[C@@H]1C=C[C@H](C)N2CN1n1cc(C(=O)NCc3c(F)cc(F)cc3F)c(=O)c(O)c1C2=O | 8.74 | 
C[C@@H]1C[C@H](O)[C@H](O)CN2CN1n1cc(C(=O)NCc3ccc(F)cc3F)c(=O)c(O)c1C2=O |  | 8.82

— ChEMBL document CHEMBL5729653, “Substituted pyridotriazine compounds and uses thereof” (2023)
